{"source": "paper PMC3827223", "about": "“Bioorthogonal Small Molecule Imaging Agents Allow Single-Cell Imaging of MET” (PLoS ONE, 2013)", "key": {"[1]": {"system": "MET phosphorylation (Y1234/1235) in OVCA429 cells", "experiment": "Western blot of HGF-stimulated MET phosphorylation in OVCA429 cells", "type": "cell-based, human", "settings": "for effect on MET phosphorylation: OVCA429 cells, 0.1, 0.5 or 1 μM pre-treatment 1 hr, 100 ng/ml HGF stimulation, Western blot densitometry", "procedure": "Cells were serum-starved in media containing 0.1% fetal bovine serum ~16 hrs before the assay. […] Phosphorylation was then stimulated with 100 ng/ml HGF diluted in RPMI with 1 mg/ml BSA for 5 min at 37°C. Cell lysates were then prepared and run on a gel as described above. Western blot analysis was performed as described above using the MET and phospho-MET primary antibodies (1:1000). Total MET and phospho-MET expression was quantified using densitometry (ImageJ)."}, "recombinant human MET": {"target": "recombinant human MET (Homo sapiens, UniProt P08581)", "sequence (P08581 25-1390)": "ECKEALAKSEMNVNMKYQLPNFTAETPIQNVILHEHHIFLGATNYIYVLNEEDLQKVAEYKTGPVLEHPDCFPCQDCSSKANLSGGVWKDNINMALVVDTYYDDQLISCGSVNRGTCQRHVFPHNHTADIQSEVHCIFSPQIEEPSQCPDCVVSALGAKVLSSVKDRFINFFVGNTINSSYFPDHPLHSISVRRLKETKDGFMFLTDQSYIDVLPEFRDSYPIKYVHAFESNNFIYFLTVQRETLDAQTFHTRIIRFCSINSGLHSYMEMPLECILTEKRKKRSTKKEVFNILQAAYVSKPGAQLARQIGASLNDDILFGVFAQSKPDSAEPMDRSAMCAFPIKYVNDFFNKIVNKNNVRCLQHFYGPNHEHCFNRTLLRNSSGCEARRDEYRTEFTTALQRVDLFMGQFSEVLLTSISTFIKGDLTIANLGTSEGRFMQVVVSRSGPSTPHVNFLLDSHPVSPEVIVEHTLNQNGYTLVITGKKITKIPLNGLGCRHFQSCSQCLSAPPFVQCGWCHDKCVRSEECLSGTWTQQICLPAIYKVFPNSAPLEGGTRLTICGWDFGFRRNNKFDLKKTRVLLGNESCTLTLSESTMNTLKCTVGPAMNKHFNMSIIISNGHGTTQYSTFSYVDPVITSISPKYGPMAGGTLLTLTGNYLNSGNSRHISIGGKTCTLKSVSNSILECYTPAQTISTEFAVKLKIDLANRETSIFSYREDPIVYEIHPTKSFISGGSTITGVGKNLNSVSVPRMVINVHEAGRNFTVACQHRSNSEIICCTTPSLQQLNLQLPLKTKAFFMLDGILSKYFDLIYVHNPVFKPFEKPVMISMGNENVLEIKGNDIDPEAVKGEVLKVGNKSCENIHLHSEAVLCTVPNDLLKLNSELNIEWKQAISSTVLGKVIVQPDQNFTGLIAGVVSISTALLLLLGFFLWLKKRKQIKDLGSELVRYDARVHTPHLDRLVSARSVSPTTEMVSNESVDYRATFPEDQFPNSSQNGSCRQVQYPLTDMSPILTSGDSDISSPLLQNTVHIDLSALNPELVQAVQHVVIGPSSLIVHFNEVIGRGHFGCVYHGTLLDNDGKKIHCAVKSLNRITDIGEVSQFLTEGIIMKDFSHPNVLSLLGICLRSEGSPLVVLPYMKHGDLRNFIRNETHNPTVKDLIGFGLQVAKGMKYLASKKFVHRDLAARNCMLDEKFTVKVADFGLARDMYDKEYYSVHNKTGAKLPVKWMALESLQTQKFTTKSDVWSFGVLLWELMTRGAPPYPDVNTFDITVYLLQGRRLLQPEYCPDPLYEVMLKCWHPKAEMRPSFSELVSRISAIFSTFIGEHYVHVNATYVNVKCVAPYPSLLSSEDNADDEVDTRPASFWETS", "experiment": "z'-LYTE FRET kinase activity assay, MET", "quoted_text": "(§1) The Tyr6 peptide kit was used to measure MET, RON, and AXL activity. The Tyr4 peptide kit was used for PDGFRα and the Tyr1 peptide kit was used to measure KDR activity. All assays were run in accordance with the manufacturer’s instructions, with minor modification. Briefly, MET, RON, and KDR were used at 0.2 μg/ml, 0.8 μg/ml, and 0.7 μg/ml, respectively. The kinase reaction buffer for MET, RON, and KDR was supplemented with 0.67% DMSO. AXL was used at 1.5 μg/ml and the reaction buffer was supplemented with 0.01% sodium azide and 0.67% DMSO. PDGFRα was used at 2.5 μg/ml and the reaction buffer was supplemented with 1mM DTT, 2mM MnCl2, and 0.67% DMSO. Inhibitors were prepared by 4-fold serial dilution at 75X the final concentration in 100% DMSO (8 μM to 0.1 nM). This stock was then diluted to 3X the final concentration in kinase reaction buffer. 5 μl of the 3X stock was added to the final 15 μl reaction volume. Both the z´-LYTE control phosho-peptide and the z´-LYTE peptide were used at a final concentration of 2 μM. […] Development reagent was then incubated for 1 hour at room temperature. […] IC50 values were obtained by fitting the dose-response curves using Prism 6 (GraphPad)."}, "recombinant Human KDR": {"target": "recombinant Human KDR (Homo sapiens, UniProt P35968)", "sequence (P35968 20-1356)": "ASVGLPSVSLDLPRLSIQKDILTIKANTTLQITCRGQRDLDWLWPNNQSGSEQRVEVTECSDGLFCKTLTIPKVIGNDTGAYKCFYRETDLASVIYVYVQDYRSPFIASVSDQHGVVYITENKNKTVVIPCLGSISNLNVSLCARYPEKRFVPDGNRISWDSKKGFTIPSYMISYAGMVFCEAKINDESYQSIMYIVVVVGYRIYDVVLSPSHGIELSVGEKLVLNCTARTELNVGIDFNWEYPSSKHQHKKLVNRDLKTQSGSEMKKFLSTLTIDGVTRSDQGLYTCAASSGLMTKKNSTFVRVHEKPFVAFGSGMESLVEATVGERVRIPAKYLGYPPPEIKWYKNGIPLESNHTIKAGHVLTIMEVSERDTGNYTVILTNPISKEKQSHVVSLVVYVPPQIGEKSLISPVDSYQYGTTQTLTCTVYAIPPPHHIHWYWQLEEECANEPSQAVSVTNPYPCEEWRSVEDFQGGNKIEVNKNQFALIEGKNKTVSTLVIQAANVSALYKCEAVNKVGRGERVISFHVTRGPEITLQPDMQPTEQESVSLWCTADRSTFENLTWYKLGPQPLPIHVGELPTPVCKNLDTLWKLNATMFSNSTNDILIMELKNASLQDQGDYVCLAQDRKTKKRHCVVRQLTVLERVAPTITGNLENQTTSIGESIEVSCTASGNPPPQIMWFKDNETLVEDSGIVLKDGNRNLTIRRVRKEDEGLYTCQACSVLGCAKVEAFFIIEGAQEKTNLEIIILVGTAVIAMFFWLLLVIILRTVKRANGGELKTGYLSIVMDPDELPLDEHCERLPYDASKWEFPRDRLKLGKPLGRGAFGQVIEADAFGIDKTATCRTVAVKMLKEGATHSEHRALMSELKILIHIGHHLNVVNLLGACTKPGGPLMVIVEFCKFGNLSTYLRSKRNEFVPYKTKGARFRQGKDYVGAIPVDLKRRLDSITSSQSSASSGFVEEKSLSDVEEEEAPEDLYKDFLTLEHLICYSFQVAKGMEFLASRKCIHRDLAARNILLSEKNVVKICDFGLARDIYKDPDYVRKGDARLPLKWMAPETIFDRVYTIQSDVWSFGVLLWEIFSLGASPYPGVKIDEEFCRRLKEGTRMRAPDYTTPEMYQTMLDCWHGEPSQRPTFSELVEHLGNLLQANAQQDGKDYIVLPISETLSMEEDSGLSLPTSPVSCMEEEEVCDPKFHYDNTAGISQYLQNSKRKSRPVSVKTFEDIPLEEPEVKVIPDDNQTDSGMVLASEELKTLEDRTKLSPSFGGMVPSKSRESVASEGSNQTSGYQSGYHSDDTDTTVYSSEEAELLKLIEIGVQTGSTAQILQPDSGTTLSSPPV", "experiment": "z'-LYTE FRET kinase activity assay, KDR", "quoted_text": "as §1"}, "recombinant human AXL": {"target": "T1, recombinant human AXL (Homo sapiens, UniProt P30530)", "T1 sequence (P30530 26-894)": "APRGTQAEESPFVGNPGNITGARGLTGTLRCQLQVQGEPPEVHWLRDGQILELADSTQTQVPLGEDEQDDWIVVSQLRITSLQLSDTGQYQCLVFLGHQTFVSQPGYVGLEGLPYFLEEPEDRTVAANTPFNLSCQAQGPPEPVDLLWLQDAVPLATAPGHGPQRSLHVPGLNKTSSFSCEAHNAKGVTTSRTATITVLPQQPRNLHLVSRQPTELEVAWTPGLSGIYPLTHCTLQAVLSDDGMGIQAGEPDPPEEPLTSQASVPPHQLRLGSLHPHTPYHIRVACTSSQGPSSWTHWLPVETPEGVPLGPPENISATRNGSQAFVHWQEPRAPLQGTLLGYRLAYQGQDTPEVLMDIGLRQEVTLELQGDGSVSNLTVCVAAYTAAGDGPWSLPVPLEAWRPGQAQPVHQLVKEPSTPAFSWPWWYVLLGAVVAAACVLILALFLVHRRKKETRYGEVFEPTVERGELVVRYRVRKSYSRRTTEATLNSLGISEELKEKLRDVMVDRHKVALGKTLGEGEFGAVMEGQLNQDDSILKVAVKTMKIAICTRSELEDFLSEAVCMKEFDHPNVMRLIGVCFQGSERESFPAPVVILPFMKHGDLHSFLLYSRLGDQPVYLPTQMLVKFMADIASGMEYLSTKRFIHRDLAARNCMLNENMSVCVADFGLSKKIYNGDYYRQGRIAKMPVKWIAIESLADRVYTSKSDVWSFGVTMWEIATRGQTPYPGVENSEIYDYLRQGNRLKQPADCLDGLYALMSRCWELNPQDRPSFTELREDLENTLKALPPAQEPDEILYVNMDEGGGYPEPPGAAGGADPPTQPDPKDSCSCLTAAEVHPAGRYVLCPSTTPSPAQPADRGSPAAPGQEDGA", "experiment": "z'-LYTE FRET kinase activity assay, AXL", "quoted_text": "as §1"}, "recombinant Human RON": {"target": "recombinant Human RON (Homo sapiens, UniProt Q04912)", "sequence (Q04912 25-1400)": "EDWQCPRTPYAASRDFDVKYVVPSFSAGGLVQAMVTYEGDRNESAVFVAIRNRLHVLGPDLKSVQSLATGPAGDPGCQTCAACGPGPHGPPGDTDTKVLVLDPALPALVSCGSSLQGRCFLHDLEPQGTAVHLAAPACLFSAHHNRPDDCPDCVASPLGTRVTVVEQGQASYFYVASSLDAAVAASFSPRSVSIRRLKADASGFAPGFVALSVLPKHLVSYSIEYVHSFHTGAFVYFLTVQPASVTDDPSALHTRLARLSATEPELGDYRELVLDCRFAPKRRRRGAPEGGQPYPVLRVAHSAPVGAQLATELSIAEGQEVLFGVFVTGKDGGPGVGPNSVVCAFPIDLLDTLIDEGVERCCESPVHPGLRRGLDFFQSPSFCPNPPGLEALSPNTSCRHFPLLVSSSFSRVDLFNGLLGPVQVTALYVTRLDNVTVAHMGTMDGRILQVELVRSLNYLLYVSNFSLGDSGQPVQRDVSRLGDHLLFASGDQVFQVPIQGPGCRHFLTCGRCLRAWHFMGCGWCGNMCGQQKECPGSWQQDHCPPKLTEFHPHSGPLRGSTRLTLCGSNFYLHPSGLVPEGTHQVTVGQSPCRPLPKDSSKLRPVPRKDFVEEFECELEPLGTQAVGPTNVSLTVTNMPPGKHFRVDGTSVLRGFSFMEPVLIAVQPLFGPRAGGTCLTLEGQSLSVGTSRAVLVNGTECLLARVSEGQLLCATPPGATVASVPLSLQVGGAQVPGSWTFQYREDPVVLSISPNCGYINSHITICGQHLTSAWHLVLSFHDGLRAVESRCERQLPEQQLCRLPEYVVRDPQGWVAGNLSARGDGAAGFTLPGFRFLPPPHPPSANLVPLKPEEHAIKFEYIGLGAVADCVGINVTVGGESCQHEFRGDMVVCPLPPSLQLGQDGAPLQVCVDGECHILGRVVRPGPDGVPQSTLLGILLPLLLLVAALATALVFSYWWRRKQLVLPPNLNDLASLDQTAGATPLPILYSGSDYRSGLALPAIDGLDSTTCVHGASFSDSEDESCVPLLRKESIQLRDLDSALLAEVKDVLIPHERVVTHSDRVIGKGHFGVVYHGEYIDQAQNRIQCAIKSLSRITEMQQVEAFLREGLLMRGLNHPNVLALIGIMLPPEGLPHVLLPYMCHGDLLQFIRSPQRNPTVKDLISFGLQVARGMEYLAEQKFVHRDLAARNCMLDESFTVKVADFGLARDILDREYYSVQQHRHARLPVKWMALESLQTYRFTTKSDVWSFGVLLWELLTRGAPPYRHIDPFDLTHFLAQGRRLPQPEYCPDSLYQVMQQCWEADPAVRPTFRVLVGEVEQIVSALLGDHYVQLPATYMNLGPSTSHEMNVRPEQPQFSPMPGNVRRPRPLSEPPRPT", "experiment": "z'-LYTE FRET kinase activity assay, RON", "quoted_text": "as §1"}, "recombinant Human PDGFRα": {"target": "recombinant Human PDGFRα (Homo sapiens, UniProt P16234)", "sequence (P16234 24-1089)": "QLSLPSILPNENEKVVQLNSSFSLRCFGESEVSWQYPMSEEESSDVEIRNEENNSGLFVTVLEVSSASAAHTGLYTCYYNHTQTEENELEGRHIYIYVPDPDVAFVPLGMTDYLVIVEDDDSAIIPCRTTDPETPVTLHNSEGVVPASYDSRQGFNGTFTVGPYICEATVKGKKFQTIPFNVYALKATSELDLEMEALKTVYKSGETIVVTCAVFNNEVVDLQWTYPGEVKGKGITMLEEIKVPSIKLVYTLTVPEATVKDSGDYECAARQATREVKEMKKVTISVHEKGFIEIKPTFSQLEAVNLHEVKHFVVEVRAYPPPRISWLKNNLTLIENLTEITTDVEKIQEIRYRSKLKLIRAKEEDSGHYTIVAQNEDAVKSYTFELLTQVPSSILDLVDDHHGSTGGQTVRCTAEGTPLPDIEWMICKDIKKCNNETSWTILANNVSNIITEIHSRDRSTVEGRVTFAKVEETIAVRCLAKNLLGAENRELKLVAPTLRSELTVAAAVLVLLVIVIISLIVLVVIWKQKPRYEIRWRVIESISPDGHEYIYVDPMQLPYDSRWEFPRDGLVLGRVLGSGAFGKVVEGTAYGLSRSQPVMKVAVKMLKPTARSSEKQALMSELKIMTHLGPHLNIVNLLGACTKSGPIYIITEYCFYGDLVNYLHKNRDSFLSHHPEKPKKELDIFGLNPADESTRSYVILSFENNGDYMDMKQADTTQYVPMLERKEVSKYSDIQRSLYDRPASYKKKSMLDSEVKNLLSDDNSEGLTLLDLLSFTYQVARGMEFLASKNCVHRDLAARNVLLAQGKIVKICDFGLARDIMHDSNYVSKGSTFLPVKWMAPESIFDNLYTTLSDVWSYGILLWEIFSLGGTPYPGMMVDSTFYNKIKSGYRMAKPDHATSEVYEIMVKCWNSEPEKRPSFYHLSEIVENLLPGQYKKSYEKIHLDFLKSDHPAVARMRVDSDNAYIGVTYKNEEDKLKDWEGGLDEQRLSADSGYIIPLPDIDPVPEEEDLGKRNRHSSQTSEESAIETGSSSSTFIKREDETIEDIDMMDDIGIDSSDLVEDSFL", "experiment": "z'-LYTE FRET kinase activity assay, PDGFRα", "quoted_text": "as §1"}, "[2]": {"settings": "Foretinib-TCO (11) IC50 value divided by Foretinib IC50 value"}}}
{"compound": "COc1cc2c(Oc3ccc(NC(=O)C4(C(=O)Nc5ccc(F)cc5)CC4)cc3F)ccnc2cc1OCCCN1CCOCC1", "note": "[Foretinib, N1’-[3-fluoro-4-[[6-methoxy-7-(3-morpholinopropoxy)-4-quinolinyl]oxy]phenyl]-N1-(4-fluorophenyl)cyclopropane-1,1-dicarboxamide, reference compound]", "values": [{"measurement": "effect on MET phosphorylation", "setting": "[1]", "value": "complete decrease in MET phosphorylation"}]}
{"compound": "COc1cc2c(Oc3ccc(NC(=O)C4(C(=O)Nc5ccc(F)cc5)CC4)cc3F)ccnc2cc1OCCCN1CCN(C(=O)CCc2ccc3n2[B-](F)(F)[N+]2=C(C)C=C(C)C2=C3)CC1", "note": "[Foretinib-BODIPY-FL, 5,5-difluoro-7-(3-(4-(3-((4-(2-fluoro-4-(1-((4-fluorophenyl)carbamoyl)cyclopropanecarboxamido)phenoxy)-6-methoxyquinolin-7-yl)oxy)propyl)piperazin-1-yl)-3-oxopropyl)-1,3-dimethyl-5H-dipyrrolo[1,2-c:2',1'-f][1,3,2]diazaborinin-4-ium-5-uide]", "values": [{"measurement": "IC50", "setting": "recombinant human MET", "value": 0.697, "unit": "µM"}, {"measurement": "change of MET IC50 relative to Foretinib (loss in drug activity)", "setting": "recombinant human MET; from 28.7 nM to 697.4 nM", "value": "over 24 fold"}, {"measurement": "effect on MET phosphorylation", "setting": "[1]", "value": "decrease in MET phosphorylation"}]}
{"compound": "COc1cc2c(Oc3ccc(NC(=O)C4(C(=O)Nc5ccc(F)cc5)CC4)cc3F)ccnc2cc1OCCCN1CCN(C(=O)OC2CC/C=C/CCC2)CC1", "note": "(centres unmarked) [Foretinib-TCO, (E)-cyclooct-4-en-1-yl 4-(3-((4-(2-fluoro-4-(1-((4-fluorophenyl)carbamoyl)cyclopropanecarboxamido)phenoxy)-6-methoxyquinolin-7-yl)oxy)propyl)piperazine-1-carboxylate]", "values": [{"measurement": "IC50", "setting": "recombinant Human KDR", "value": 0.15, "unit": "µM"}, {"measurement": "Fold Change (TCO/Foretinib) KDR", "setting": "recombinant Human KDR; [2]", "value": 6.2}, {"measurement": "IC50", "setting": "recombinant human MET", "value": 0.0886, "unit": "µM"}, {"measurement": "Fold Change (TCO/Foretinib) MET", "setting": "recombinant human MET; [2]", "value": 3.1}, {"measurement": "IC50", "setting": "recombinant human AXL", "value": 0.0725, "unit": "µM"}, {"measurement": "Fold Change (TCO/Foretinib) AXL", "setting": "recombinant human AXL; [2]", "value": 3.4}, {"measurement": "IC50", "setting": "recombinant Human RON", "value": 0.0827, "unit": "µM"}, {"measurement": "Fold Change (TCO/Foretinib) RON", "setting": "recombinant Human RON; [2]", "value": 4.1}, {"measurement": "IC50", "setting": "recombinant Human PDGFRα", "value": 0.265, "unit": "µM"}, {"measurement": "Fold Change (TCO/Foretinib) PDGFRα", "setting": "recombinant Human PDGFRα; [2]", "value": 4.5}, {"measurement": "effect on MET phosphorylation", "setting": "[1]", "value": "decrease in MET phosphorylation"}, {"measurement": "potency in decreasing MET phosphorylation compared with the BODIPY-FL (12) version", "setting": "[1]; OVCA429 cells, 0.1-1 μM, HGF stimulation, Western blot", "value": "greater potency"}]}
{"compound": "O=C(NCCn1cc(-c2cnc3nnn(Cc4ccc5ncccc5c4)c3n2)cn1)OC1CC/C=C/CCC1", "note": "(centres unmarked) [PF04217903-TCO, (E)-cyclooct-4-en-1-yl (2-(4-(1-(quinolin-6-ylmethyl)-1H-[1,2,3]triazolo[4,5-b]pyrazin-6-yl)-1H-pyrazol-1-yl)ethyl)carbamate]", "values": [{"measurement": "IC50", "setting": "recombinant human MET", "value": 0.00148, "unit": "µM"}]}
